US20230101803A1, “3CLPRO-TARGETING PHILLYRIN, DERIVATIVE THEREOF, AND USE THEREOF AGAINST NOVEL CORONAVIRUS” (DALIAN FUSHENG NATURAL MEDICINE DEVELOPMENT CO., LTD., priority 2020, published 2023)
Like-named read-outs stand apart in the source and are kept apart here.

Tests used:
[1] = system: IFN-γ; test: IFN-γ mRNA expression in lung homogenate of infected mice (RT-qPCR); assay type: in vivo, ACE2 transgenic C57BL/6 mice; details: positive control 50 mg/kg, fifth day after infection
Source text: (§1) Mice: hACE2 mice, 6-7 weeks old, 20-40 g, 120 males in total, laboratory animal supplier: Jiangsu Gempharmatech Co., Ltd.; laboratory animal production license: SOCK (Su) 2018-0008; laboratory animal certificate No.: No.320727201100243581; diets supplier: Jiangsu Medicience Biopharmaceutical Co., Ltd.
(§2) Except for administrating PBS to the mice in the normal group by nasal drip, the mice in other groups were infected with 10^5 PFU of SARS-CoV-2 virus by nasal drip. Two hours after infection, phillyrin was intragastrically administrated to the mice in the administrating groups, once a day, for 5 consecutive days. On the fifth day after infection, the animals were dissected to take lungs for tissue homogenization to test the viral titer. Total RNA was extracted from the supernatant of lung tissue homogenate by Trizol method, and the mRNA expression of related inflammatory factors was detected by RT-qPCR.

[2] = system: SARS-CoV-2 virus; test: Death protection of hACE2 mice infected with novel coronavirus; assay type: in vivo, hACE2 transgenic C57BL/6 mice; details: positive control 50 mg/kg
Procedure: Except for administrating PBS to the mice in the normal group by nasal drip, the mice in other groups were infected with 10^5 PFU of SARS-CoV-2 virus by nasal drip. […] Changes in body weight were recorded every day after infection, and 5-day mortality was calculated.

[3] = system: IFN-α; test: IFN-α mRNA expression in lung homogenate of infected mice (RT-qPCR); assay type: in vivo, ACE2 transgenic C57BL/6 mice; details: positive control 50 mg/kg, fifth day after infection
Source text: as §1, §2

[4] = system: IL-1β; test: IL-1β mRNA expression in lung homogenate of infected mice (RT-qPCR); assay type: in vivo, ACE2 transgenic C57BL/6 mice; details: positive control 50 mg/kg, fifth day after infection
Source text: as §1, §2

[5] = system: MCP-1; test: MCP-1 mRNA expression in lung homogenate of infected mice (RT-qPCR); assay type: in vivo, ACE2 transgenic C57BL/6 mice; details: positive control 50 mg/kg, fifth day after infection
Source text: as §1, §2

[6] = system: SARS-CoV-2 virus; test: Viral titer in lung tissues of novel coronavirus-infected mice; assay type: in vivo, ACE2 transgenic C57BL/6 mice; details: positive control 50 mg/kg, fifth day after infection
Source text: as §1, §2

[7] = system: HCoV-229E; test: CPE inhibition of HCoV-229E in vitro (process of first embodiment); assay type: cell-based
[8] = target: SARS-CoV-2 3CL pro protein (Severe acute respiratory syndrome coronavirus 2, UniProt P0DTD1); assay type: binding; details: 3CL pro protein peak at 278 nm; protein 10^−5 M, compound 10^−4 M

## CCC(CC)COC(=O)[C@H](C)N[P@](=O)(OC[C@H]1O[C@@](C#N)(c2ccc3c(N)ncnn23)[C@H](O)[C@@H]1O)Oc1ccccc1 [Remdesivir]
[1]
  IFN-γ mRNA expression in lung homogenate: 173.79 ± 84.84
[2]
  Mean survival days: 4.86 ± 0.38 days
  Survival rate (%): 87.50%
[3]
  IFN-α mRNA expression in lung homogenate: 69.99 ± 53.20
[4]
  IL-1β mRNA expression in lung homogenate: 7.41 ± 5.86
[5]
  MCP-1 mRNA expression in lung homogenate: 7.31 ± 5.14
[6]
  Viral titer in lung (Log10): 1.68 ± 0.45 Log10

## COc1cc([C@H]2OC[C@H]3[C@@H]2CO[C@H]3c2ccc(OC)c(OC)c2)ccc1O [phillygenin]
[7]; HCoV-229E, compared with the composition
  inhibitory effect (compared in the same study): worse

## phillyrin [KD-1]
[8]
  change of UV-Vis absorbance of 3CL pro protein after compound was added: the absorbance was increased and the peak shifted
[7]
  inhibitory effect (compared in the same study): worse
